Laboratory results: publication PMC5569447 (Iranian Journal of Basic Medical Sciences, 2017)
Peptide text beside a SMILES is read from it.

system: Mtb strain H37Rv ATCC 27294; conditions: 24 h

| SMILES | MABA MIC [µM] |
| --- | --- |
| CC(C)[C@H](NC(=O)CN)C(=O)N1CCC[C@H]1C(=O)NCC(=O)O [GVPG, glycine-valine-proline-glycine] (H-GVPG-OH) | 200 |
| N=C(N)NCCC[C@H](NC(=O)[C@@H]1CCCN1)C(=O)NCC(=O)O [PRG] (H-Pro-Arg-Gly-OH) | >800 |
| N=C(N)NCCC[C@H](NC(=O)[C@@H]1CCCN1)C(=O)N1CCC[C@H]1C(=O)O [PRP] (H-Pro-Arg-Pro-OH) | >800 |
| CC(C)[C@H](NC(=O)[C@@H](NC(=O)[C@@H]1CCCN1)[C@@H](C)O)C(=O)O [PTV] (H-Pro-Thr-Val-OH) | >800 |
| C[C@@H](O)[C@H](NC(=O)[C@@H](N)CCC(N)=O)C(=O)N[C@@H](CCC(N)=O)C(=O)O [QTQ] (H-Gln-Thr-Gln-OH) | >800 |
| N=C(N)NCCC[C@H](NC(=O)[C@@H]1CCCN1C(=O)[C@@H](N)CCCNC(=N)N)C(=O)O [RPR, arginine-proline-arginine] (H-Arg-Pro-Arg-OH) | 200 |
| N[C@@H](CO)C(=O)NCC(=O)N1CCC[C@H]1C(=O)O [SGP] (H-Ser-Gly-Pro-OH) | >800 |
| N=C(N)NCCC[C@H](NC(=O)[C@@H]1CCCN1C(=O)[C@@H](N)CO)C(=O)O [SPR] (H-Ser-Pro-Arg-OH) | >800 |
| N=C(N)NCCC[C@H](NC(=O)[C@@H](N)CO)C(=O)N1CCC[C@H]1C(=O)O [SRP] (H-Ser-Arg-Pro-OH) | >800 |
